{"source": "patent US20150283098A1", "about": "“PRENYLATED CHALCONE FORMULATION FOR THE TREATMENT OF BEES” (BIOACTIVE-TECH SP. Z O.O., priority 2012, published 2015)", "key": {"[1]": {"system": "bees", "experiment": "Example 3: viability of bee colonies poisoned with thiamethoxam (Actara) after xanthohumol spray", "type": "in vivo", "procedure": "The experiment was carried out in Loma-Zawady Przedmieście, Poland in an apiary consisting of 25 colonies based in hives of Dadant type (frame 435×300 mm). The hives had wire-net, detachable bottom in the form of a diagnostic tray. The nest body of the hives consisted of 10 frames.\nBee colonies in the form of separated colonies were purchased from local producer. Each separated colony consisted of 3 frames of brood and frames with supply of bee bread and honey. All frames were settled in “black” by bees.\nThe experiments were carried out on 25 swarms of bees divided into VI groups. Groups I to V, consisted of 4 hives, each.\nIn groups I-V, xanthohumol at the concentration of 40 mg/l was used as a protective formulation. Actara at the concentration of 0.4 g/l was used for poisoning of insects (the concentration used in spraying of beetle).\nGroup IV—bee colonies treated with the protective preparation in the form of spray. Poisoning with Actara by alimentary route. 20 mg of xanthohumol were dissolved in 1 ml of ethyl alcohol and subsequently added to 0.5 l of sugar syrup in water in a ration 1:1 and four hives were sprayed with spraying machine so that one bee colony received a dose of 5 mg of xanthohumol. Poisoning with Actara given with 1:1 syrup (1 kg of sugar+1 l of water).\nGroup V—bee colonies treated with the protective preparation in the form of spray. Poisoning with Actara by contact route. 20 mg of xanthohumol were dissolved in 1 ml of ethyl alcohol and subsequently added to 0.5 l of sugar syrup in water in a ratio 1:1 and four hives were sprayed with the spraying machine so that one bee colony received a dose of about 5 mg of xanthohumol. Poisoning was carried out in the form of small-molecule spraying which was used for each frame with bees.\nIn this group, a formulation of different xanthohumol concentrations was used, and Actara (thiametoxam 25%) for poisoning of bees, at a dose of 0.2 g/l (concentration used by fruit farmers) was used. The control group were bees subjected only to spraying procedure with Actara.\nGroup VI a)—bees were protected with the formulation of xanthohumol concentration of 0.08 mg/l.\n0.01 mg of xanthohumol was dissolved in 1 ml of ethyl alcohol and subsequently added to 0.125 l of sugar syrup in water in a ratio 1:1 and 1 hive was sprayed so that one a bee colony received a dose of about 0.01 mg of xanthohumol. After 24 hours, the bee colony was poisoned by a contact route. The poisoning was carried out in the form of small-molecule spraying which was used for each frame with bees.\nGroup VI b)—the bees were protected with the preparation of xanthohumol in concentration 1.6 mg/l.\n0.2 mg of xanthohumol was dissolved in 1 ml of ethyl alcohol and subsequently added to 0.125 l of sugar syrup in water in a ratio 1:1 and 1 hive was sprayed so that one bee colony received a dose of about 0.2 mg of xanthohumol. After 24 hours, the bee colony was poisoned by the contact route. Poisoning was carried out in the form of small-molecule spraying which was applied on each frame with the bees.\nGroup VI c)—the bees were protected with a formulation of xanthohumol in concentration 16 mg/l.\n2 mg of xanthohumol dissolved in 1 ml of ethyl alcohol which was added to 0.125 l of sugar syrup in water in a ration of 1:1 in duplicate and it was sprayed on 2 hives so that one bee colony received a dose of about 2 mg of xanthohumol. After 24 hours, the bee colonies were poisoned by the contact route. The poisoning was carried out if the form of a small-molecule spray which was applied on each frame with bees.\nGroup VI d)—the bees were protected with a preparation of xanthohumol concentration 8 g/1.\n1 g of xanthohumol dissolved in 10 ml of ethyl alcohol which was then added to 0.125 l of sugar syrup in water in a ratio 1:1 and it was sprayed on 1 hive so that one bee colony received a dose of about 1000 mg of xanthohumol (1 hive). After 24 hours bee colony was poisoned by a contact route. […]"}, "[2]": {"system": "virus of sacbrood disease and mycosis and Nosemosis", "experiment": "Other studies in Poland: colonies with sacbrood disease, mycosis and Nosemosis", "type": "in vivo, bees", "settings": "5 mg per one bee colony", "procedure": "The studies prowed that the formulation containing xanthohumol (at a dose of 5 mg per one bee colony) may be used also for the treatment of the virus of sacbrood disease and mycosis and Nosemosis. […] The increased hygienic instinct was shown by studies carried out on bee colonies by a dozen of beekeepers in Poland."}, "[3]": {"settings": "cited from earlier work"}, "[4]": {"system": "Nosema spp. (apis and cerenae)", "experiment": "Counting of Nosema cells under a microscope in blended dead bees", "type": "in vivo", "text": "(§1) (apis and cerenae). It was found on the basis of studies (initial results) that the amount of spores observed under a microscope after the use of Xn decreased by 60% on average in relation to control. Observation under a microscope of blended dead bees was related to counting of Nosema cells in the suspension of distilled water. […] The formulation was also investigated in several bee colonies in apiary infected with Nosemosis."}, "[5]": {"system": "bees", "experiment": "Example 2: viability and behaviour of bees in apiary hives with low concentration of imidaclopride spray", "type": "in vivo", "procedure": "Similar studies as described in example 1 were carried out in three bee hives containing ˜40,000 bees. Frames with bees (FIG. 4) were sprayed with imidaclopride dissolved in water at a concentration of 125 μl/l (microlitres per litre). It is a half of imidaclopride concentration in Kohinor 200 SL used in cultivation of vegetables in soil. The purpose of the study was to investigate low doses of imidaclopride to which mainly are exposed the bees collecting nectar during agrotechnological procedures.\nThe bees were studied in two groups. […] The studied group were bees which were given protective xanthohumol preparation in […] (milligram per litre) syrup for one week and then treated with imidaclopride spray at the above mentioned concentration (FIGS. 6A, 6B and 6C)."}, "[6]": {"system": "bees", "experiment": "Example 3: effect of xanthohumol formulation itself on bee colonies (vigour, hygienic instinct, toxicity)", "type": "in vivo", "procedure": "Group III—bee colonies treated with the protective formulation in the form of spray without poisoning with Actara. 20 mg of xanthohumol were dissolved in 1 ml of ethyl alcohol and subsequently added to 0.5 l of sugar syrup in water in a ratio of 1:1, and four hives were sprayed with use of a spraying machine so that one bee colony received a dose of about 5 mg of xanthohumol. Actara was not used in this experiment.\n1 g of xanthohumol dissolved in 10 ml of ethyl alcohol which was then added to 0.125 l of sugar syrup in water in a ratio 1:1 and it was sprayed on 1 hive so that one bee colony received a dose of about 1000 mg of xanthohumol (1 hive). After 24 hours bee colony was poisoned by a contact route. Poisoning was carried out in the form of small-molecule spray which was applied on each frame with bees."}, "[7]": {"system": "Nosema spp.", "experiment": "Spraying of bee colonies in apiary infected with Nosemosis", "type": "in vivo", "settings": "several days after spraying with formulation containing xanthohumol", "text": "as §1"}, "[8]": {"system": "bees", "experiment": "Example 1: viability of bees in experimental queen cages with high concentration of imidaclopride", "type": "in vivo", "settings": "10 mg/l xanthohumol in syrup for three days, then imidaclopride (Kohinor 200 SL) 375 μl/l; controls died in 100%", "procedure": "The experiment was carried out in Lublin, Poland in an apiary containing 250 bee colonies.\nThe influence of xanthohumol concentration in sugar syrup on the viability of bees was studied on samples of 100 bees placed in a special cage for studies, (FIG. 1). The bees were taking a protective formulation for three days in the form of xanthohumol dissolved in standard sugar syrup in three concentrations: 5, 10 and 20 mg of xanthohumol/1, respectively. Each concentration was studied in three independent small hives. After three days of taking the protective formulation, the bees received imidaclopride (in Kohinor 200 SL) in a concentration of 375 μl/l in a […] (similar doses are used for controlling of insects in vegetable cultivations). As a control group, three small hives of 100 bees each were used, which were not fed with xanthohumol containing preparation. All xanthohumol concentrations and the control group were studied in thriplicate. Xanthohumol obtained by chromatographic method from hop post-extraction waste was used. The purity of the preparation was ˜99% (FIG. 3)."}, "[9]": {"system": "bees", "experiment": "Stocking of a hive contaminated with a pesticide with a protected colony", "type": "in vivo", "settings": "xanthohumol in syrup 2 g/l by spray; unprotected colony collapsed", "text": "Furthermore, it was found on the basis of the studies with the use of the formulation according to the invention, that there is a possibility of rehabilitating the protected bees in these regions which were contaminated by pesticides, where it has not been possible so far. In the hive where a control bee colony unprotected with the preparation was stocked with new unprotected colony, it collapsed within a short time. A hive contaminated with a pesticide is poisonous for bees even after several weeks."}, "[10]": {"system": "focal ischaemia caused by MCAO in rats", "settings": "cited from earlier work"}}}
{"compound": "COc1cc(O)c(CC=C(C)C)c(O)c1C(=O)/C=C/c1ccc(O)cc1", "note": "[xanthohumol]", "values": [{"measurement": "losses of bees", "setting": "[1]; Group IV: xanthohumol 40 mg/l spray, Actara 0.4 g/l alimentary route after 24 hours", "result": 35, "unit": "%"}, {"measurement": "memory / flights for pollen of surviving colonies", "setting": "[1]; Group IV: xanthohumol 40 mg/l, Actara 0.4 g/l alimentary route", "result": "did not lose memory"}, {"measurement": "losses of bees", "setting": "[1]; Group V: xanthohumol 40 mg/l spray, Actara 0.4 g/l contact route after 24 hours", "result": 10, "unit": "%"}, {"measurement": "memory / flights for pollen of surviving colonies", "setting": "[1]; Group V: xanthohumol 40 mg/l, Actara 0.4 g/l contact route", "result": "did not lose memory and carried pollen"}, {"measurement": "behaviour of the colony", "setting": "[1]; Group VI a survivors, a week after post-poisoning spraying with xanthohumol 1.6 mg/l, dose of 2 mg", "result": "returned to normal"}, {"measurement": "time until bees restarted flights around the hive", "setting": "[1]; Group VI a survivors, sprayed after poisoning with xanthohumol 1.6 mg/l, dose of 2 mg", "result": 48, "unit": "h"}, {"measurement": "part of bee colony that did not survive", "setting": "[1]; Group VI a: xanthohumol 0.08 mg/l (0.01 mg per colony), Actara 0.2 g/l contact after 24 hours", "result": 60, "unit": "%"}, {"measurement": "restart of flights for pollen by surviving bees", "setting": "[1]; Group VI a: xanthohumol 0.08 mg/l, Actara 0.2 g/l", "result": "did not restart flights for pollen either after 24 hours or 48 hours"}, {"measurement": "part of bee colony that did not survive", "setting": "[1]; Group VI b: xanthohumol 1.6 mg/l (0.2 mf per colony), Actara 0.2 g/l contact", "result": "about 40%"}, {"measurement": "time until surviving bees restarted flights for pollen", "setting": "[1]; Group VI b: xanthohumol 1.6 mg/l, Actara 0.2 g/l", "result": 48, "unit": "h"}, {"measurement": "symptoms of poisoning", "setting": "[1]; Group VI c: seven days from poisoning", "result": "do not show any symptoms of poisoning"}, {"measurement": "survival of bees", "setting": "[1]; Group VI c: xanthohumol 16 mg/l (2 mg per colony), Actara 0.2 g/l contact", "result": "almost all bees survived"}, {"measurement": "time until surviving bees restarted flights for pollen", "setting": "[1]; Group VI c: xanthohumol 16 mg/l, Actara 0.2 g/l", "result": 24, "unit": "h"}, {"measurement": "symptoms of poisoning", "setting": "[1]; Group VI d: after seven days", "result": "did not show any symptoms of poisoning"}, {"measurement": "losses of bees", "setting": "[1]; Group VI d: xanthohumol 8 g/l (1 g per colony), Actara 0.2 g/l", "result": 10, "unit": "%"}, {"measurement": "bees survived", "setting": "[1]; Group VI d: xanthohumol 8 g/l (1 g per colony), Actara 0.2 g/l contact after 24 hours", "result": 90, "unit": "%"}, {"measurement": "effect in colonies with mycosis and Nosemosis", "setting": "[2]", "result": "fast purification of the nest from dead insects occurred"}, {"measurement": "effect in colonies with sacbrood disease", "setting": "[2]", "result": "the colony started to work"}, {"measurement": "water solubility", "setting": "[3]", "result": "poor"}, {"measurement": "decrease of amount of Nosema spores observed under a microscope in relation to control", "setting": "[4]; after the use of Xn, on average, initial results", "result": 60, "unit": "%"}, {"measurement": "number of Nosema pieces in suspension of blended dead bees", "setting": "[4]; after using the formulation for 1 week, bees without Xn 30±3", "result": "8±2", "unit": "pieces"}, {"measurement": "behaviour of bees", "setting": "[5]; two weeks after the administration of imidaclopride", "result": "did not show any differences in behaviour compared to the healthy hives"}, {"measurement": "bees died", "setting": "[5]; xanthohumol 10 mg/ml (milligram per litre) syrup for one week, then imidaclopride spray 125 μl/l", "result": "~10", "unit": "%"}, {"measurement": "time from spraying until bees started to fly to the pasture and bring pollen", "setting": "[5]; xanthohumol syrup one week, imidaclopride spray 125 μl/l", "result": "Three"}, {"measurement": "behaviour and hygienic instinct of bee colony", "setting": "[6]; Group III: spray, xanthohumol 40 g/l, about 5 mg per colony, no Actara", "result": "improved the behaviour of bee colony and significantly influenced hygienic instinct of a bee"}, {"measurement": "Varroa destructor mites on the diagnostic tray", "setting": "[6]; Group III: spray, xanthohumol 40 g/l, no Actara, not observed in control hives", "result": "Dead mites Varroa destructor were also observed"}, {"measurement": "symptoms increasing the vigour", "setting": "[6]; Group VI a: 0.01 mg xanthohumol per colony", "result": "no symptoms increasing the vigour"}, {"measurement": "toxic effects of xanthohumol preparation on bees", "setting": "[6]; Group VI d: 1 gram per hive (8 g/l), inspected 24 hours after use, before poisoning", "result": "did not cause any toxic effects"}, {"measurement": "movement of bees at the beehive entrance", "setting": "[6]; all studied concentrations of xanthohumol, compared to control hives", "result": "increased movement of bees was observed at the beehive entrance"}, {"measurement": "brooding of bee mothers compared with the control", "setting": "[6]; first half of August, hives protected with the preparation", "result": "significant increase"}, {"measurement": "typical symptoms of Nosema spp. infection (soiling of frames and front wall of the hive with feces)", "setting": "[7]", "result": "disappeared"}, {"measurement": "viability of bees", "setting": "[8]", "result": "~45", "unit": "%"}, {"measurement": "fate of protected colony put into pesticide-contaminated hive", "setting": "[9]", "result": "still lived and did not show symptoms of poisoning"}, {"measurement": "area of brain ischaemic necrosis", "setting": "[10]", "result": "significantly decreased"}]}
